From ChEMBL document CHEMBL4699620, “Peptide Inhibitors of the α-Cobratoxin-Nicotinic Acetylcholine Receptor Interaction” (J Med Chem, 2020)
Where a SMILES comes first, the peptide text is derived from it. [ ]: non-standard residue; d: D form. PEG6 = NCCOCCOCCOCCOCCOCCOCCC(=O)O

Key:
Alpha-cobratoxin = biological target: T1, Alpha-cobratoxin (Naja kaouthia, UniProt P01391); test: Displacement of TAMRA-HAKTYMWDGWYMPTSH-NH2 from Naja kaouthia alpha-cobratoxin by fluorescence polarization assay
T1 sequence (P01391 whole entry): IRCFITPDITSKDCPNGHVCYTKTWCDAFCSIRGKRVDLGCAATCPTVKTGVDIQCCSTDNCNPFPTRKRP

[1] = Stability of compound in PBS buffer measured after 1 day at 37 degC by HPLC analysis; format: physicochemical; settings: 24 h
[2] = Stability of compound in PBS buffer assessed as compound degradation measured after 9 days at room temperature by HPLC analysis; format: physicochemical; settings: time 9 day, read-out: Drug degradation
[3] = Stability of compound in PBS buffer measured after 1 day at room temperature by HPLC analysis; format: physicochemical; settings: 24 h
[4] = Stability of compound in PBS buffer assessed as compound degradation measured after 2 days at 37 degC by HPLC analysis; format: physicochemical; settings: time 2 day, read-out: Drug degradation

## CSCC[C@H](NC(=O)[C@H](Cc1ccc(O)cc1)NC(=O)[C@H](Cc1c[nH]c2ccccc12)NC(=O)CNC(=O)[C@H](CC(=O)O)NC(=O)[C@H](Cc1c[nH]c2ccccc12)NC(=O)[C@H](CCSC)NC(=O)[C@H](Cc1ccc(O)cc1)NC(=O)CCOCCOCCOCCOCCOCCOCCN)C(N)=O (H-[PEG6]YMWDGWYM-NH2)
Alpha-cobratoxin
  Ki: 26 µM
[1]
  Stabilty: Stable
[2]
  degraded at 216 h: 7%
[3]
  Stabilty: Stable
[4]
  degraded at 48 h: 7%

## Ac-HAKTYMWDGWYMPTSH-NH2
Alpha-cobratoxin
  IC50: 29 µM
  Ki: 2 µM
[1]
  Stabilty: Stable
[3]
  Stabilty: Stable
